System: Microcystis aeruginosa
Test: M. aeruginosa cultures, peroxide held constant with Fe-EDTA and citric acid
Format: cell-based
Conditions: 1.75 ppm H2O2; for In vivo chl a concentrations (± SD) of M. aeruginosa cultures: initial 3.83 ± 0.05 μg/L
Protocol: Tests were conducted similar to Example 1 to show the efficacy of compositions made according to the present disclosure against Microcystis aeruginosa. M. aeruginosa is a species of fresh water bacteria that can form harmful algal blooms.
Peroxide concentrations were held constant at either 0.5 ppm, 1.5 ppm, 1.75 ppm, or 2.0 ppm. Fe-EDTA was applied at 0.3%, 0.6%, or 0.9% based on the original dry formulation. Citric acid was added at 1% based on the original dry formulation.
For instance, Tables 5 and 6 below illustrate the differences when peroxide was applied at 1.75 ppm.

OO [H2O2, hydrogen peroxide]
In vivo chl a concentrations (± SD) of M. aeruginosa cultures (day 1): 2.87 ± 0.74 µg/L | In vivo chl a concentrations (± SD) of M. aeruginosa cultures (day 2): 1.72 ± 0.66 µg/L | In vivo chl a concentrations (± SD) of M. aeruginosa cultures (day 3): 1.31 ± 0.64 µg/L | In vivo chl a concentrations (± SD) of M. aeruginosa cultures (day 4): 1.32 ± 0.63 µg/L | Cell density of M. aeruginosa cultures (± SD) (day 4, initial cell density 2.2E+06 ± 7.2E+04 cells/mL): 8.0E+04 cells/mL

— patent US10244762B1, “Solid aquatic organism control composition and method of use” (priority 2016, dated 2019)
